Results reported in article PMC9920749, “In Vitro and In Silico Studies of Neolignans from Magnolia grandiflora L. Seeds against Human Cannabinoids and Opioid Receptors” (Molecules, 2023).
Where two headings read alike, the source gives them in different places.

Key:
[1] = molecular target: CB2R; conditions: cited from earlier work
[2] = molecular target: CB1R; conditions: data from the original publication; read-out: CB1R Agonist Ki; cited from earlier work
[3] = test system: CB2 receptor; design: method as in PMID 24204944; conditions: forskolin-induced cAMP; cited from earlier work
[4] = molecular target: T1, µ opioid receptor (Homo sapiens, UniProt P35372); assay: biochemical; type: binding; conditions: for Opioid Receptors (% Displacement) µ: 10 μM purified compounds and 2 + 3; for IC50: 2 and 3 run as a singlet; for µ Opioid Receptor Ki ± SEM / Ki: 2 and 3 run as a singlet (no S.E.M.); for Ki: read-out: µ Opioid Receptor Ki ± SEM
T1 construct: host or cells: HEK293, stably transfected; membrane preparation
T1 sequence (P35372 whole entry): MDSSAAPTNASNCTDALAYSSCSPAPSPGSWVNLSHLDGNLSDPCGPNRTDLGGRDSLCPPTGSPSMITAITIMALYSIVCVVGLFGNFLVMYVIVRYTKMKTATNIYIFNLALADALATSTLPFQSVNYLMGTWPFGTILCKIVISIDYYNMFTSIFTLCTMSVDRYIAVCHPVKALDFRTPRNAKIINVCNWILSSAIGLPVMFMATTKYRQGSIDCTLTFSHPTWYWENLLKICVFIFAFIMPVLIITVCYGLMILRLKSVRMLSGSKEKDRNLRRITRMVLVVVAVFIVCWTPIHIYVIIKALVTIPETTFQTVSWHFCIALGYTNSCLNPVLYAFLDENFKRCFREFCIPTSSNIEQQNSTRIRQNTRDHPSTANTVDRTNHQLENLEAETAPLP
Procedure: (§1) HEK293 cells stably transfected with δ, κ, and μ opioid subtypes were a generous gift from Roth Laboratories (University of North Carolina at Chapel Hill, NC, USA). Opioid cells were maintained as previously described. Membranes were made by washing the cells with cold PBS. The cells were then scraped in cold 50 mM Tris-HCl, pH 7.4 buffer. The solution was centrifuged at 5200× g for 10 min at 4 °C. Next, the supernatant was discarded, and the pellet was washed with more Tris-HCl buffer, homogenized via Sonic Dismembrator (Fisher Scientific, Pittsburgh, PA, USA) and then centrifuged at 24,000× g for 40 min at 4 °C. Finally, the pellet was re-suspended in cold 50 mM Tris-HCl buffer, aliquoted into 2 mL vials, and stored at −80 °C. The total membrane protein concentration was measured using a Pierce BCA Protein Assay Kit (Thermo Scientific, Rockford, IL, USA) as per the manufacturer’s protocol.
(§2) Cannabinoid and opioid competitive radioligand binding assays were performed as previously described. Saturation experiments were performed for all the receptors to determine receptor concentration and radioligand dissociation constant (Kd) for the membrane. Percent displacements were evaluated for all the cannabinoid and opioid subtypes with a triplicate of a fixed concentration (10 µg/mL for extracts and fractions, 10 μM for purified compounds). […] Control/test compounds were dissolved in DMSO at 10 μg/mL for extracts and fractions and 10 μM for purified compounds. […] The competitive binding assays were performed using 12 serial dilutions of each compound ranging from 0.002–300 μM (control compounds were serially diluted from 10 μM to 0.06 nM). The cannabinoid assays were incubated for 90 min at 37 °C with gentle agitation. The opioid assays were incubated for 60 min at room temperature. Bound radioligand was collected on GF/C (cannabinoid) or GF/B plates (opioid), washed 10 times with ice-cold 50 mM Tris-HCl (pH 7.4)/0.1% BSA (cannabinoid) or ice-cold 50 mM Tris-HCl (pH 7.4) (opioid). Radiodetection was measured with 50 µL (cannabinoid) or 25 µL (opioid) MicroScint^TM-20 on a TopCount NXT HTS Microplate Scintillation Counter (PerkinElmer, Waltham, MA, USA). The IC50 and Ki values were calculated by a non-linear curve fit model using GraphPad Prizm 5.0 software (GraphPad Software Inc., San Diego, CA, USA). Each compound was tested in triplicate unless stated otherwise.
(§3) Percent displacement was calculated to represent the ability of the samples to displace the radioligand binding for a given cannabinoid or opioid receptor subtype.
(§4) % displacement was calculated as follows: 100− binding of compound−nonspecific binding/specific binding×100

[5] = molecular target: T2, κ opioid receptor (Homo sapiens, UniProt P41145); type: binding; conditions: 10 μM purified compounds and 2 + 3
T2 construct: host or cells: HEK293, stably transfected; membrane preparation
T2 sequence (P41145 whole entry): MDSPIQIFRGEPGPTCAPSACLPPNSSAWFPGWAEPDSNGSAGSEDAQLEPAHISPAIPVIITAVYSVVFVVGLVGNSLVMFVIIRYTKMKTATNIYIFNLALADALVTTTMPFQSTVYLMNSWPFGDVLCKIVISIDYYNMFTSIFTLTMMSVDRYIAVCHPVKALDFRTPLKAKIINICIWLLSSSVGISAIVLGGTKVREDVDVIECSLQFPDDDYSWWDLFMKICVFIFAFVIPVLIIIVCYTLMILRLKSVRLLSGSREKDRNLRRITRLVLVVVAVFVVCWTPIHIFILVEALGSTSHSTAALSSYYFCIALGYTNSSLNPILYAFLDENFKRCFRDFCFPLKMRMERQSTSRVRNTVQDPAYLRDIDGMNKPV
Procedure: as §1, with “Finally, the pellet was re-suspended in cold 50 mM Tris-HCl buffer, aliquoted into 2 mL vials, and stored at −80 °C.” left out
(§5) Cannabinoid and opioid competitive radioligand binding assays were performed as previously described. […] Percent displacements were evaluated for all the cannabinoid and opioid subtypes with a triplicate of a fixed concentration (10 µg/mL for extracts and fractions, 10 μM for purified compounds). […] Radiodetection was measured with 50 µL (cannabinoid) or 25 µL (opioid) MicroScint^TM-20 on a TopCount NXT HTS Microplate Scintillation Counter (PerkinElmer, Waltham, MA, USA). The IC50 and Ki values were calculated by a non-linear curve fit model using GraphPad Prizm 5.0 software (GraphPad Software Inc., San Diego, CA, USA). […]

[6] = test system: CB1 receptor; design: method as in PMID 24204944; conditions: forskolin-induced cAMP; cited from earlier work
[7] = molecular target: T3, CB2R (Homo sapiens, UniProt P34972); assay: Competitive radioligand binding assay, [3H]-CP55,940, HEK293 membranes; conditions: for Cannabinoid Receptors (% Displacement) CB2: 10 μM purified compounds and 2 + 3
T3 construct: expressed in transfected cells; host or cells: HEK293 (ATCC), stably transfected; membrane preparation
T3 sequence (P34972 whole entry): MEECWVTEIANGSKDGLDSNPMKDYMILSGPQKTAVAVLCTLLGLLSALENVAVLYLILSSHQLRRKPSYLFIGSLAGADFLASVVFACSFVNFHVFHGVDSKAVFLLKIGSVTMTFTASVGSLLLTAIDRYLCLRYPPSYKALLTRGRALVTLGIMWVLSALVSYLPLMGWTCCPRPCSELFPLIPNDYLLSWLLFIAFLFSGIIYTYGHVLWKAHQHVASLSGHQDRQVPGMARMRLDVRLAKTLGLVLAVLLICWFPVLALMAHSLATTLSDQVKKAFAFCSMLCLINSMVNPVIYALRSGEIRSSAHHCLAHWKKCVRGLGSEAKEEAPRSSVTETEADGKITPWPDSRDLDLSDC
Procedure: as §2, §3, §4

[8] = test system: CB2R; design: method as in Schuehly et al. (2011); conditions: ref Schuehly et al. (2011); cited from earlier work
[9] = molecular target: T4, δ opioid receptor (Homo sapiens, UniProt P41143); assay: Competitive radioligand binding assay, [3H]-enkephalin (DPDPE), HEK293 membranes; conditions: 10 μM purified compounds and 2 + 3
T4 construct: host or cells: HEK293, stably transfected; membrane preparation
T4 sequence (P41143 whole entry): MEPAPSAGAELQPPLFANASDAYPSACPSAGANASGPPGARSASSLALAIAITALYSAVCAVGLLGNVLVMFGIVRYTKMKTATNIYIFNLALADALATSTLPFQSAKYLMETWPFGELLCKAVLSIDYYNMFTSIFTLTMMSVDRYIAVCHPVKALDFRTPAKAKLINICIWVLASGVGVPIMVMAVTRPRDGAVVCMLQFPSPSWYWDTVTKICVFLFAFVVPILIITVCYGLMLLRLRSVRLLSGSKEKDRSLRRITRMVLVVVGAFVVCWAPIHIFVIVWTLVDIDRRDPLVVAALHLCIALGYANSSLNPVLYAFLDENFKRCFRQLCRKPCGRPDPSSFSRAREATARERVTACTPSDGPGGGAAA
Procedure: as §1, with “Finally, the pellet was re-suspended in cold 50 mM Tris-HCl buffer, aliquoted into 2 mL vials, and stored at −80 °C.” left out
as §5

[10] = test system: CB2R; design: method as in earlier work; conditions: ref 27 (Rempel et al. 2013); cited from earlier work
[11] = molecular target: T5, CB1R (Homo sapiens, UniProt P21554); assay: Competitive radioligand binding assay, [3H]-CP55,940, HEK293 membranes; conditions: for Cannabinoid Receptors (% Displacement) CB1: 10 μM purified compounds and 2 + 3; for IC50: concentration for 50% displacement of 3H-labeled ligand; for Ki: read-out: CB1R Ki ± SEM
T5 construct: expressed in transfected cells; host or cells: HEK293 (ATCC), stably transfected; membrane preparation
T5 sequence (P21554 whole entry): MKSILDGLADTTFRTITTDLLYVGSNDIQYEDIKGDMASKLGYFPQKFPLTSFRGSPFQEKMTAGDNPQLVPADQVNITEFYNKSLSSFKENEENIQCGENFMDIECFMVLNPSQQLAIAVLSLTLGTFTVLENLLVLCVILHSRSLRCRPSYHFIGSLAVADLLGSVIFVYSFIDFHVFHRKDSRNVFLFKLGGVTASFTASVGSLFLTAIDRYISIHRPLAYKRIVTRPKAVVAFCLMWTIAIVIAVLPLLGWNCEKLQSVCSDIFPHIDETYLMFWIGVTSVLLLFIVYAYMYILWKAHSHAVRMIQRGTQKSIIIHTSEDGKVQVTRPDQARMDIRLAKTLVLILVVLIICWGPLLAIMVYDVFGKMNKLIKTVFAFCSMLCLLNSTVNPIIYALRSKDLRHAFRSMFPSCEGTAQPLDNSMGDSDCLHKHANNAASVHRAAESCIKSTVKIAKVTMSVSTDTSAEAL
Procedure: as §1, §2, §3, §4

[12] = data from the original publication, read-out: CB2R Agonist Ki
[13] = concentration for 50% displacement of 3H-labeled ligand, read-out: CB2R IC50

Structure (SMILES): CCCCCCc1ccc(OC)c(-c2cc(CCC)ccc2O)c1 [Compound 6b]
- Ki [1, 12]: 281 ± 101 nM
- Ki [2]: 313 nM

Structure (SMILES): C=CCc1ccc(O)c(-c2ccc(OC)c(CC=C)c2)c1 [Compound 1, 4-O-methylhonokiol]
- functional activity at CB2 in cAMP accumulation [3]: agonist
- Opioid Receptors (% Displacement) µ [4]: 46.2%
- Opioid Receptors (% Displacement) κ [5]: 18.3%
- functional activity at CB1 in cAMP accumulation [6]: agonist
- IC50 [7]: 590 nM
- Ki [7]: 290 ± 20 nM
- Cannabinoid Receptors (% Displacement) CB2 [7]: 82.2%
- behavior at CB2R at Gi/o [8]: inverse agonist
- behavior at CB2R regarding intracellular Ca2+ [Ca2+]i [8]: full agonist
- Ki [1, 12]: 43.3 ± 17.1 nM
- Opioid Receptors (% Displacement) Δ [9]: 31.4%

Structure (SMILES): CCCCCc1ccc(O)c(-c2cc(CCC)ccc2O)c1 [Compound 5]
- Ki [1, 12]: 37.5 ± 7.8 nM
- Ki [2]: 362 ± 113 nM

Structure (SMILES): CCCCCc1ccc(O)c(-c2cc(CCC)ccc2OC)c1 [Compound 5a]
- Ki [1, 12]: 31 ± 9.9 nM
- Ki [2]: 17.3 ± 1.4 nM

Structure (SMILES): C=CCc1ccc(O)c(-c2cc(CC=C)ccc2O)c1 [Compound 2, magnolol]
- Opioid Receptors (% Displacement) µ [4]: 52.9%
- IC50 [4]: 106000 nM
- µ Opioid Receptor Ki ± SEM [4]: low affinity
- Ki [4]: 53100 nM
- Opioid Receptors (% Displacement) κ [5]: 10.7%
- functional character at CB2R [10]: partial CB2R agonists
- Cannabinoid Receptors (% Displacement) CB2 [7]: 74.7%
- IC50 [7, 13]: 2890 nM
- Ki ([7]; read-out: CB2R Ki ± SEM): 1400 ± 140 nM
- Ki [1, 12]: 1440 nM
- Opioid Receptors (% Displacement) Δ [9]: 7.3%
- Cannabinoid Receptors (% Displacement) CB1 [11]: 52.7%
- IC50 [11]: 35600 nM
- Ki [11]: 17800 ± 3430 nM
- Ki [2]: 3150 nM

Structure (SMILES): CCCc1ccc(O)c(-c2cc(CCC)ccc2O)c1 [Compound 4, tetrahydromagnolol]
- functional character at CB2R [10]: partial CB2R agonists
- Cannabinoid Receptors (% Displacement) CB2 [7]: 78.2%
- IC50 [7, 13]: 1990 nM
- Ki ([7]; read-out: CB2R Ki ± SEM): 990 ± 140 nM
- Ki [1, 12]: 416 nM
- Ki ([1]; ref 27 (Rempel et al. 2013), read-out: CB2R Ki): 410 nM
- Cannabinoid Receptors (% Displacement) CB1 [11]: 30.8%
- IC50 [11]: 38200 nM
- Ki [11]: 19100 ± 790 nM
- Ki [2]: 2260 nM

Structure (SMILES): CCCc1ccc(O)c(-c2cc(CCC)ccc2OC)c1 [Compound 4a, methoxytetrahydromagnolol]
- Ki [1, 12]: 221 ± 57 nM
- Ki [2]: 267 ± 58 nM

Structure (SMILES): CCCCCCc1ccc(O)c(-c2cc(CCC)ccc2O)c1 [Compound 6]
- Ki [1, 12]: 29.4 ± 9 nM
- Ki [2]: 145 ± 48 nM

Structure (SMILES): CCCCCCC(C)(C)c1ccc([C@@H]2C[C@H](O)CC[C@H]2CCCO)c(O)c1 [CP55,940, reference compound]
- Cannabinoid Receptors (% Displacement) CB2 [7]: 101.3%

Structure (SMILES): C=CCc1ccc(O)c(-c2ccc(O)c(CC=C)c2)c1 [Compound 3, honokiol]
- Opioid Receptors (% Displacement) µ [4]: 54.2%
- IC50 [4]: 91100 nM
- µ Opioid Receptor Ki ± SEM [4]: low affinity
- Ki [4]: 182000 nM
- functional character at CB2R [10]: CB2R antagonist or inverse agonist
- Cannabinoid Receptors (% Displacement) CB2 [7]: 65.7%
- IC50 [7, 13]: 3880 nM
- Ki ([7]; read-out: CB2R Ki ± SEM): 1940 ± 160 nM
- Ki [1, 12]: 5610 nM
- Cannabinoid Receptors (% Displacement) CB1 [11]: 50.8%
- IC50 [11]: 29100 nM
- Ki [11]: 14500 ± 2470 nM
- Ki [2]: 6460 nM

Structure (SMILES): CCCCCCc1ccc(O)c(-c2cc(CCC)ccc2OC)c1 [Compound 6a]
- Ki [1, 12]: 23.8 ± 7.1 nM
- Ki [2]: 9.57 ± 5.43 nM
